Key:
[1] = tested on: human stomach cancer cells (MKN-45); experiment: Experiment 2: pharmacokinetics of Cupid-scFv antibody (24 h before)+^211At-psyche-B in MKN-45 cancer-bearing mouse models; format: in vivo, mice (BALB/cSlc nu/nu)
Procedure: The present experiment used highly CEA-expressing human stomach cancer cells (MKN-45). 9-week-old male immunodeficient mice (BALB/cSlc nu/nu) were used. MKN-45 cells (1×10^7/0.1 ml) were transplanted into the mice's subcutis on the right shoulder dorsal side to produce MKN-45 cancer-bearing mouse models. The mice were divided into four groups when the tumor volume became a predetermined size (on Day 13 after the transplantation). A Cupid-scFv antibody was administered in 100 μmol/0.1 ml via the caudal vein of each mouse. Twenty-four hours after administration of the Cupid-scFv antibody, ^211At-psyche-B (about 0.25 MBq/100 ml) was administered via the caudal vein of the mice. One minute, 1 hour, 6 hours, and 24 hours after administration of the ^211At-psyche-B, the mice were euthanized by collecting whole blood from the heart of each mouse under isoflurane anesthesia, and tumor tissues and normal tissues/organs were then excised. Normal tissues/organs: skin (lower right limb), muscle (right gastrocnemius muscle), heart, lung, spleen, pancreas, white fat (upper portion of right side testis), testis (right side), stomach (without contents), small intestine, large intestine, liver, brown fat, submandibular gland, thyroid gland (together with trachea), bone (right femur), cerebrum, eyeballs (both sides), bladder, and urine; the remaining residues were divided into three equal parts, and the three equal parts were defined to be residue-1, residue-2, and residue-3. After that, the weights of blood, plasma, urine, tumor, and normal tissues/organs were measured, and the radioactivity thereof was then measured using a γ counter. The amounts of the ^211At-psyche-B (radioactivity) accumulated in the blood, plasma, urine, tumor, and normal tissues/organs were calculated. That is to say, the rates (% ID/g) of the ^211At-psyche-B accumulated per unit weight (g) of the blood, plasma, urine, tumor, and normal tissues/organs, in the administered ^211At-psyche-B, were shown. Regarding accumulation of the ^211At-psyche-B in the thyroid gland, since the weight of the thyroid gland could not be precisely measured, it was shown that the rate (% ID) of the ^211At-psyche-B accumulated in the thyroid gland in the administered ^211At-psyche-B.

[2] = tested on: human stomach cancer cells (MKN-45); experiment: Experiment 3: pharmacokinetics of Cupid-scFv antibody (48 h before)+^211At-psyche-B in MKN-45 cancer-bearing mouse models; format: in vivo, mice (BALB/cSlc nu/nu)
Procedure: The present experiment highly used CEA-expressing human stomach cancer cells (MKN-45). 9-week-old male immunodeficient mice (BALB/cSlc nu/nu) were used. MKN-45 cells (1×10^7/0.1 ml) were transplanted into the mice's subcutis on the right shoulder dorsal side to produce cancer-bearing mouse models. The mice were divided into four groups when the tumor volume became a predetermined size (on Day 12 after the transplantation). A Cupid-scFv antibody was administered in 100 μmol/0.1 ml via the caudal vein of each mouse. Forty-eight hours after administration of the Cupid-scFv antibody, ^211At-psyche-B (about 0.25 MBq/100 ml) was administered via the caudal vein of the mice. One minute, 1 hour, 6 hours, and 24 hours after administration of the ^211At-psyche-B, the mice were euthanized by collecting whole blood from the heart of each mouse under isoflurane anesthesia, and tumor tissues and normal tissues/organs were then excised. Normal tissues/organs: skin (lower right limb), muscle (right gastrocnemius muscle), heart, lung, spleen, pancreas, white fat (upper portion of right side testis), testis (both sides), stomach, stomach contents, small intestine (including contents), large intestine (including contents), liver, brown fat (interscapular), submandibular gland, thyroid gland (together with trachea), bone (right femur), cerebrum, eyeballs (both sides), bladder, and urine; the remaining residues were divided into three equal parts, and the three equal parts were defined to be residue-1, residue-2, and residue-3. After that, the weights of blood, plasma, urine, tumor, and normal tissues/organs were measured, and the radioactivity thereof was then measured using a γ counter. The amounts of the ^211At-psyche-B (radioactivity) accumulated in the blood, plasma, urine, tumor, and normal tissues/organs were calculated. That is to say, the rates (% ID/g) of the ^211At-psyche-B accumulated per unit weight (g) of the blood, plasma, urine, tumor, and normal tissues/organs, in the administered ^211At-psyche-B, were shown. Regarding accumulation of the ^211At-psyche-B in the thyroid gland, since the weight of the thyroid gland could not be precisely measured, it was shown that the rate (% ID) of the ^211At-psyche-B accumulated in the thyroid gland in the administered ^211At-psyche-B.

Structure (SMILES): N=C1N[C@H]2[C@H](CS[C@H]2CCCCC(=O)NCCCCCC(=O)Nc2cc(NC(=O)CCCCCNC(=O)CCCC[C@@H]3SC[C@@H]4NC(=N)N[C@@H]43)cc(C(=O)NCCOCCOCCNC(=O)c3cccc([211At])c3)c2)N1 [^211At-psyche-B]
- Accumulation in the kidney ([1]; after 1 minute): 29.3±1.5 % ID/g
- Accumulation in the liver ([1]; after 1 minute): 17.4±2.3 % ID/g
- Accumulation in the lung ([1]; after 1 minute): 15.9±1.7 % ID/g
- Accumulation in the spleen ([1]; after 1 minute): 4.9±1.7 % ID/g
- Accumulation in the tumor ([1]; after 1 minute): 0.6±0.1 % ID/g
- Clearance from the blood ([1]; after 1 minute): 46.4±1.4 % ID/g
- tumor-to-blood ratio ([1]; after 1 minute): 0.01±0.00
- tumor-to-muscle ratio ([1]; after 1 minute): 1.5±0.3
- Accumulation in the kidney ([1]; after 1 hour): 14.2±1.3 % ID/g
- Accumulation in the liver ([1]; after 1 hour): 13.6±1.4 % ID/g
- Accumulation in the lung ([1]; after 1 hour): 14.7±3.6 % ID/g
- Accumulation in the spleen ([1]; after 1 hour): 7.9±1.1 % ID/g
- Accumulation in the tumor ([1]; after 1 hour): 3.2±0.4 % ID/g
- Clearance from the blood ([1]; after 1 hour): 40.6±3.2 % ID/g
- tumor-to-blood ratio ([1]; after 1 hour): 0.08±0.01
- tumor-to-muscle ratio ([1]; after 1 hour): 5.2±1.0
- Accumulation in the kidney ([1]; after 6 hours): 9.8±0.7 % ID/g
- Accumulation in the liver ([1]; after 6 hours): 16.0±1.4 % ID/g
- Accumulation in the lung ([1]; after 6 hours): 11.2±0.9 % ID/g
- Accumulation in the spleen ([1]; after 6 hours): 10.1±0.3 % ID/g
- Accumulation in the tumor ([1]; after 6 hours): 11.8±1.5 % ID/g
- Clearance from the blood ([1]; after 6 hours): 29.4±0.9 % ID/g
- tumor-to-blood ratio ([1]; after 6 hours): 0.40±0.05
- tumor-to-muscle ratio ([1]; after 6 hours): 14.0±0.9
- Accumulation in the thyroid gland ([1]; after 24 h): 0.16±0.06 % ID
- Accumulation in the kidney ([1]; after 24 hours): 4.7±0.8%
- Accumulation in the liver ([1]; after 24 hours): 15.5±0.1%
- Accumulation in the lung ([1]; after 24 hours): 4.2±0.5%
- Accumulation in the spleen ([1]; after 24 hours): 9.6±2.4%
- Accumulation in the tumor ([1]; after 24 hours): 16.3±4.1%
- Clearance from the blood ([1]; after 24 hours): 6.2±1.3 % ID/g
- administered amount excreted (blood) ([1]; after 24 hours): 94%
- tumor-to-blood ratio ([1]; after 24 hours): 2.63±0.10
- tumor-to-muscle ratio ([1]; after 24 hours): 26.5±4.6
- Accumulation in the kidney ([2]; after 1 minute): 62.3±9.8 % ID/g
- Accumulation in the liver ([2]; after 1 minute): 41.4±6.2 % ID/g
- Accumulation in the lung ([2]; after 1 minute): 10.2±1.6 % ID/g
- Accumulation in the spleen ([2]; after 1 minute): 3.5±0.1 % ID/g
- Accumulation in the tumor ([2]; after 1 minute): 0.5±0.1 % ID/g
- Clearance from the blood ([2]; after 1 minute): 30.7±2.2 % ID/g
- tumor-to-blood ratio ([2]; after 1 minute): 0.02±0.00
- tumor-to-muscle ratio ([2]; after 1 minute): 1.0±0.3
- Accumulation in the kidney ([2]; after 1 hour): 38.0±4.5 % ID/g
- Accumulation in the liver ([2]; after 1 hour): 25.6±2.5 % ID/g
- Accumulation in the lung ([2]; after 1 hour): 12.2±0.9 % ID/g
- Accumulation in the spleen ([2]; after 1 hour): 8.5±0.6 % ID/g
- Accumulation in the tumor ([2]; after 1 hour): 3.2±0.7 % ID/g
- Clearance from the blood ([2]; after 1 hour): 30.8±5.5 % ID/g
- tumor-to-blood ratio ([2]; after 1 hour): 0.11±0.02
- tumor-to-muscle ratio ([2]; after 1 hour): 4.7±0.4
- Accumulation in the kidney ([2]; after 6 hours): 14.9±0.8 % ID/g
- Accumulation in the liver ([2]; after 6 hours): 23.6±2.3 % ID/g
- Accumulation in the lung ([2]; after 6 hours): 8.5±0.9 % ID/g
- Accumulation in the spleen ([2]; after 6 hours): 11.1±0.7 % ID/g
- Accumulation in the tumor ([2]; after 6 hours): 9.9±2.9 % ID/g
- Clearance from the blood ([2]; after 6 hours): 19.0±2.6 % ID/g
- tumor-to-blood ratio ([2]; after 6 hours): 0.51±0.09
- tumor-to-muscle ratio ([2]; after 6 hours): 13.1±3.5
- Accumulation in the thyroid gland ([2]; after 24 h): 0.16±0.02 % ID
- Accumulation in the kidney ([2]; after 24 hours): 6.6±0.2%
- Accumulation in the liver ([2]; after 24 hours): 19.3±0.6%
- Accumulation in the lung ([2]; after 24 hours): 3.5±0.2%
- Accumulation in the spleen ([2]; after 24 hours): 10.2±1.6%
- Accumulation in the tumor ([2]; after 24 hours): 11.3±3.3%
- Clearance from the blood ([2]; after 24 hours): 2.6±0.5 % ID/g
- tumor-to-blood ratio ([2]; after 24 hours): 4.38±0.85
- tumor-to-muscle ratio ([2]; after 24 hours): 23.2±7.2

— US20230241257A1, “BIOTIN-MODIFIED DIMER AND USE THEREOF” (THE UNIVERSITY OF TOKYO, priority 2020, published 2023)
